Measured values as given in patent US9115092B2, “Substituted quinazoline and pyrido-pyrimidine derivatives” (Asana Biosciences, LLC, priority 2010, dated 2015).

Legend:
mTOR kinase = target: T1, mTOR kinase (Homo sapiens, UniProt P42345); assay: mTOR kinase TR-FRET assay; format: biochemical; conditions: read-out: mTO R
T1 construct: purchased Millipore, USA
Method: Compound inhibition for mTOR kinase was determined in a homogeneous TR-FRET assay using the Lance® ULight-p70 S6K (Thr 389) peptide (obtained from Perkin-Elmer). The ULight™-labeled synthetic peptide contains the amino acid residues surrounding Thr389 of human p70 S6K. The ULight-p70 S6K peptide is phosphorylated at Thr389 by mTOR. Phosphorylation motif: LGFTYVAP as substrate.
The compound dilution was carried out in 100% DMSO followed by a buffer dilution. The reaction buffer was HEPES (50 mM pH 7.5), EGTA (1 mM), MnCl2 (3 mM). Test compounds at various concentrations were pre-incubated with mTOR (Millipore, USA; 5 ng) for 60 min, and then the Lance® ULight-p70 S6K (Thr 389) peptide (50 nM) was added along with ATP (20 μM). After incubating the reaction mixture for 60 min at room temperature, the kinase reaction was terminated by the addition of EDTA (10 mM) followed by the addition of detection mix, i.e., 1 nM Eu-labeled anti-phospho-substrate antibody (Perkin Elmer, USA). The fluorescence emission at […] was measured upon excitation at 340 nm. IC50 values were subsequently determined using a sigmoidal dose-response curve (variable slope) in GraphPad Prism® 5 software.
Compounds of formula (I) caused inhibition of mTOR kinase activity as determined by this assay.

[1] = target: T2, PI3Kα (wild-type), P110/P85α (Homo sapiens, UniProt P42336); assay: PI3 Kinase TR-FRET assay, PI3Kα (wild-type); format: biochemical
T2 construct: made in house; host or cells: SF9 insect cells
Method: The ability of compounds of the invention to inhibit PI3K activity was determined in a homogeneous TR-FRET assay using a PI3K assay kit (Millipore, USA; cat #33-016) according to manufacturer's instructions. PI3-Kinases (isoforms α, β, γ and δ) catalyze the phosphorylation of phosphatidylinositol, PIP2 to PIP3 in the presence of ATP and Mg^2+. The PIP3 product is detected by displacement of biotin-PIP3 from an energy transfer complex consisting of Europium labeled anti-GST monoclonal antibody, a GST-tagged PH domain, biotinylated PIP3 and Streptavidin-APC. Excitation of Europium in the complex results in an energy transfer to the APC and a fluorescence emission at 665 nm. The PIP3 product displaces biotin-PIP3 from the complex resulting in a loss of energy transfer and thus a decrease in signal.
To test for the ability of compounds to inhibit the activity of PI3Kα (wild-type), exemplary compounds of formula (I) were dissolved in DMSO and directly distributed into 384-well plates at a volume of 0.5 μL. 14.5 μL of P110/P85α/PIP2 mixture in buffer (obtained from the Millipore kit) containing MgCl2 (40 mM) and DTT (5 mM) was added to compound wells and incubated for 60 min at room temperature. P110/P85α was expressed in SF9 insect cells and purified nickel column extraction. Five ng of wild-type P110/P85α was used in the assay. The kinase reaction was started by the addition of ATP. The assay concentrations of both PIP2 and ATP were 10 μM. The reaction mixture was incubated for 30 min at room temperature and was terminated by the addition of stop mix and detection mix. Fluorescence was measured at 615 and 665 nm upon excitation at 340 nm in a Victor™ V5 fluorometer (Perkin Elmer, USA). The fluorescence emission ratio at 665 to 615 nm, proportional to the kinase activity, was plotted against the compound concentration to generate dose-response curves and IC50 values were determined using GraphPad Prism® 5 software.

T2 sequence (P42336 whole entry): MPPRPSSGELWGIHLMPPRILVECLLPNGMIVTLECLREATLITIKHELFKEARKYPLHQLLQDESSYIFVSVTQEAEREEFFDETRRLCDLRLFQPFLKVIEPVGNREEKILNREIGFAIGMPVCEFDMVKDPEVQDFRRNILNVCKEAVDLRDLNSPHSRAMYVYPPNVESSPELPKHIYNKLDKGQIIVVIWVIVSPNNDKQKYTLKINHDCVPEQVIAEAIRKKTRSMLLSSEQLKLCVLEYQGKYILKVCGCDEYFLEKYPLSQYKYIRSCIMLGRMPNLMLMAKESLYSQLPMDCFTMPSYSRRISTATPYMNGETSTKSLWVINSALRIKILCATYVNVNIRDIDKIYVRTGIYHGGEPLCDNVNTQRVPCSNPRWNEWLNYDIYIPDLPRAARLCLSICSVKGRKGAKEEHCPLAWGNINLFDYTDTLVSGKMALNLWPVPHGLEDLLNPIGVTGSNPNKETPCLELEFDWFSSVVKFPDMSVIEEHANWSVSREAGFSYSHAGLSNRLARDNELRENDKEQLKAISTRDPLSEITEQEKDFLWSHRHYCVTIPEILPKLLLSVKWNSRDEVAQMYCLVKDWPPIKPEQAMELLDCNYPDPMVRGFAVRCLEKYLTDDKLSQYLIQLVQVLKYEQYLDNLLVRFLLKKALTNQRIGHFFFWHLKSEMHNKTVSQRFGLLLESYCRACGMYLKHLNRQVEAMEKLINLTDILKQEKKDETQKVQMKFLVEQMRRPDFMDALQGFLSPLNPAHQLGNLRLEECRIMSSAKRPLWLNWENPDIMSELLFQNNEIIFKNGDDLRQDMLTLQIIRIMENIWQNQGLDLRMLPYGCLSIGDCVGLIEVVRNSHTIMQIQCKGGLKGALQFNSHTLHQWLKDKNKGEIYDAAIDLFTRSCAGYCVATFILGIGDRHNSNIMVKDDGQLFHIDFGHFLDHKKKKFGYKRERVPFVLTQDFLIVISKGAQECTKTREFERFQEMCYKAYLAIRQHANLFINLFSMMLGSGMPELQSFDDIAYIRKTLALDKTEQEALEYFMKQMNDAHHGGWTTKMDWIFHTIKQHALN
T2 sequence (P27986 whole entry partner): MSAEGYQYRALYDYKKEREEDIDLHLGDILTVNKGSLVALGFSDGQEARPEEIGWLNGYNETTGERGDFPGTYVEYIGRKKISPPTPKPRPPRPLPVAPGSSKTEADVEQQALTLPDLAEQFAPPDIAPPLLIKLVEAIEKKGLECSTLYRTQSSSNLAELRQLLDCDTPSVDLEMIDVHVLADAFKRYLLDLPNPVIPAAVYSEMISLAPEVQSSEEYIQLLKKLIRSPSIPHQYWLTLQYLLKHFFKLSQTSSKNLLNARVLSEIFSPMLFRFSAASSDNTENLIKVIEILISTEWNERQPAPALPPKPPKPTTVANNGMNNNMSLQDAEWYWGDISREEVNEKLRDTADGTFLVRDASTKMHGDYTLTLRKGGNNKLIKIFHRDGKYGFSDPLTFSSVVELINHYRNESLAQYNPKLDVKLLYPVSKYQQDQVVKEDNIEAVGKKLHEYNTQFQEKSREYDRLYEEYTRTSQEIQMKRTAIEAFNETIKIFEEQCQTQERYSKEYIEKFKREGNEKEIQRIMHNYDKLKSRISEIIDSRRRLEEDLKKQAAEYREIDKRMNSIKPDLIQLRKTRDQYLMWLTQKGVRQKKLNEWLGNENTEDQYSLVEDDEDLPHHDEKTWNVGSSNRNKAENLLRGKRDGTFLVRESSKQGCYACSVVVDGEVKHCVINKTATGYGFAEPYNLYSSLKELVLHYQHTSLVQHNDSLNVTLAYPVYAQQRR

Row | IC50 (mTOR kinase) | IC50 [1] | SMILES
1 | 0.201 to 10 µM | 0.05 to 0.2 µM | CN(C)C(=O)c1ccc(NC(=O)Nc2ccc(-c3nc(N4CCOCC4)c4ccc(-c5cccc(F)c5)cc4n3)cc2)cc1 [Example 47, 4-(3-{4-[7-(3-fluoro-phenyl)-4-morpholin-4-yl-quinazolin-2-yl]-phenyl}-ureido)-N,N-dimethyl-benzamide]
2 | 0.05 to 0.2 µM | 0.05 to 0.2 µM | COc1cccc(-c2ccc3c(N4CCOCC4)nc(-c4ccc(NC(=O)Nc5ccc(C(=O)N(C)C)cc5)cc4)nc3c2)c1 [Example 48, 4-(3-{4-[7-(3-methoxy-phenyl)-4-morpholin-4-yl-quinazolin-2-yl]-phenyl}-ureido)-N,N-dimethyl-benzamide]
3 | 0.05 to 0.2 µM | < 0.05 µM | CN(C)C(=O)c1ccc(NC(=O)Nc2ccc(-c3nc(N4CCOCC4)c4ccc(-c5cccc(N(C)C)c5)cc4n3)cc2)cc1 [Example 50, 4-(3-{4-[7-(3-dimethylamino-phenyl)-4-morpholin-4-yl-quinazolin-2-yl]-phenyl}-ureido)-N,N-dimethyl-benzamide]
4 | < 0.05 µM | 0.05 to 0.2 µM | CNC(=O)c1ccc(NC(=O)Nc2ccc(-c3nc(N4CCOCC4)c4ccc(-c5ccc(C)o5)cc4n3)cc2)cc1 [Example 56, N-methyl-4-(3-{4-[7-(5-methyl-furan-2-yl)-4-morpholin-4-yl-quinazolin-2-yl]-phenyl}-ureido)-benzamide]
5 | 0.201 to 10 µM | < 0.05 µM | Cc1ccc(-c2ccc3c(N4CCOCC4)nc(-c4ccc(NC(=O)Nc5ccc(C(=O)N(C)C)cc5)nc4)nc3c2)o1 [Example 57, N,N-dimethyl-4-(3-{5-[7-(5-methyl-furan-2-yl)-4-morpholin-4-yl-quinazolin-2-yl]-pyridin-2-yl}-ureido)-benzamide]
6 | 0.201 to 10 µM | 0.05 to 0.2 µM | Cc1ccc(-c2ccc3c(N4CCOCC4)nc(-c4ccc(NC(=O)Nc5ccc(C(=O)N(C)C)cc5)cc4)nc3c2)s1 [Example 61, N,N-dimethyl-4-(3-{4-[7-(5-methyl-thiophen-2-yl)-4-morpholin-4-yl-quinazolin-2-yl]-phenyl}-ureido)-benzamide]
7 | 0.201 to 10 µM | 0.201 to 10 µM | CN(C)C(=O)c1ccc(NC(=O)Nc2ccc(-c3nc(N4CCOCC4)c4ccc(-c5cc6ccccc6o5)cc4n3)cc2)cc1 [Example 64, 4-{3-[4-(7-benzofuran-2-yl-4-morpholin-4-yl-quinazolin-2-yl)-phenyl]-ureido}-N,N-dimethyl-benzamide]
8 | < 0.05 µM | 0.05 to 0.2 µM | Cc1ccc(-c2cccc3c(N4CCOCC4)nc(-c4ccc(NC(=O)Nc5ccc(C(=O)N(C)C)cc5)cc4)nc23)o1 [Example 71, N,N-dimethyl-4-(3-{4-[8-(5-methyl-furan-2-yl)-4-morpholin-4-yl-quinazolin-2-yl]-phenyl}-ureido)-benzamide]
9 | < 0.05 µM | < 0.05 µM | CN(C)C(=O)c1ccc(NC(=O)Nc2ccc(-c3nc(N4CCOCC4)c4ccc(-c5cnc(N)nc5)cc4n3)cc2)cc1 [Example 76, 4-(3-{4-[7-(2-amino-pyrimidin-5-yl)-4-morpholin-4-yl-quinazolin-2-yl]-phenyl}-ureido)-N,N-dimethyl-benzamide]
10 | < 0.05 µM | < 0.05 µM | CN(C)C(=O)c1ccc(NC(=O)Nc2ccc(-c3nc(N4CCOCC4)c4ncc(-c5cccnc5F)cc4n3)cc2)cc1 [Example 78, 4-(3-{4-[7-(2-fluoro-pyridin-3-yl)-4-morpholin-4-yl-pyrido[3,2-d]pyrimidin-2-yl]-phenyl}-ureido)-N,N-dimethyl-benzamide]
11 | < 0.05 µM | 0.05 to 0.2 µM | CN(C)C(=O)c1ccc(NC(=O)Nc2ccc(-c3nc(N4CCOCC4)c4cc(F)c(-c5cnn(C)c5)cc4n3)cc2F)cc1 [Example 108, 4-(3-(2-fluoro-4-(6-fluoro-7-(1-methyl-1H-pyrazol-4-yl)-4-morpholino-quinazolin-2-yl)phenyl)ureidodimethyl-benzamide)-N,N-dimethyl-benzamide]
12 | 0.05 to 0.2 µM | 0.05 to 0.2 µM | CN(C)C(=O)c1ccc(NC(=O)Nc2ccc(-c3nc(N4CCOCC4)c4cc(F)c(-c5cccnc5)cc4n3)cc2F)cc1 [Example 109, 4-(3-(2-fluoro-4-(6-fluoro-4-morpholino-7-(pyridin-3-yl)quinazolin-2-yl)phenyl)ureido)-N,N-dimethyl-benzamide]
13 | < 0.05 µM | 0.201 to 10 µM | CN(C)C(=O)c1ccc(NC(=O)Nc2ccc(-c3nc(N4CCOCC4)c4ccc(-c5cnc(N)nc5)cc4n3)cc2F)cc1 [Example 110, 4-(3-(4-(7-(2-aminopyrimidin-5-yl)-4-morpholino-quinazolin-2-yl)-2-fluorophenyl)ureido)-N,N-dimethyl-benzamide]
14 | 0.05 to 0.2 µM | 0.05 to 0.2 µM | CN(C)C(=O)c1ccc(NC(=O)Nc2ccc(-c3nc(N4CCOCC4)c4ccc(-c5ccco5)cc4n3)cc2F)cc1 [Example 114, 4-(3-(2-fluoro-4-(7-(furan-2-yl)-4-morpholino-quinazolin-2-yl)phenyl)ureido)-N,N-dimethyl-benzamide]
15 | 0.201 to 10 µM | < 0.05 µM | COc1ncc(-c2ccc3c(N4CCOCC4)nc(-c4ccc(NC(=O)Nc5ccc(C(=O)N(C)C)cc5)nc4)nc3c2)cn1 [Example 119, 4-(3-(5-(7-(2-methoxypyrimidin-5-yl)-4-morpholino-quinazolin-2-yl)pyridin-2-yl)ureido)-N,N-dimethyl-benzamide]
16 | 0.05 to 0.2 µM | 0.05 to 0.2 µM | Cc1ccc(-c2ccc3c(N4CCOCC4)nc(-c4ccc(NC(=O)Nc5ccc(C(=O)N(C)C)nc5)c(F)c4)nc3c2)o1 [Example 122, 5-(3-(2-fluoro-4-(7-(5-methylfuran-2-yl)-4-morpholino-quinazolin-2-yl)phenyl)ureido)-N,N-dimethylpicolinamide]
17 | 0.05 to 0.2 µM | 0.201 to 10 µM | CC1CN(c2nc(-c3ccc(NC(=O)Nc4ccc(C(=O)N(C)C)cc4)cc3)nc3cc(-c4cnn(C)c4)cnc23)CC(C)O1 (centres unmarked) [Example 125, 4-(3-(4-(4-(2,6-dimethylmorpholino)-7-(1-methyl-1H-pyrazol-4-yl)pyrido[3,2-d]pyrimidin-2-yl)phenyl)ureido)-N,N-dimethyl-benzamide]
18 | 0.201 to 10 µM | 0.201 to 10 µM | CC1CN(c2nc(-c3ccc(NC(=O)Nc4ccc(C(=O)N(C)C)cc4)c(F)c3)nc3cc(-c4cnn(C)c4)cnc23)CC(C)O1 (centres unmarked) [Example 126, 4-(3-(4-(4-(2,6-dimethylmorpholino)-7-(1-methyl-1H-pyrazol-4-yl)pyrido[3,2-d]pyrimidin-2-yl)-2-fluorophenyl)ureido)-N,N-dimethyl-benzamide]
19 | 0.201 to 10 µM | 0.201 to 10 µM | Cc1ccc(-c2ccc3c(N4CCOCC4)nc(-c4ccc(NC(=O)Nc5ccc(C(=O)N(C)C)cc5F)cc4)nc3c2)o1 [Example 136, 3-fluoro-N,N-dimethyl-4-(3-(4-(7-(5-methylfuran-2-yl)-4-morpholino-quinazolin-2-yl)phenyl)ureido)-benzamide]
20 | 0.201 to 10 µM | 0.201 to 10 µM | CN(C)C(=O)c1ccc(NC(=O)Nc2ccc(-c3nc(N4CCOCC4)c4ccc(-c5cncnc5)cc4n3)cc2F)c(F)c1 [Example 139, 3-fluoro-4-(3-(2-fluoro-4-(4-morpholino-7-(pyrimidin-5-yl)quinazolin-2-yl)phenyl)ureido)-N,N-dimethyl-benzamide]
21 | 0.201 to 10 µM | < 0.05 µM | CN(C)C(=O)c1ccc(NC(=O)Nc2ccc(-c3nc(N4CCOCC4)c4ccc(-c5cncnc5)cc4n3)cn2)c(F)c1 [Example 140, 3-fluoro-N,N-dimethyl-4-(3-(5-(4-morpholino-7-(pyrimidin-5-yl)quinazolin-2-yl)pyridin-2-yl)ureido)-benzamide]
22 | 0.05 to 0.2 µM | 0.201 to 10 µM | CN(C)C(=O)c1ccc(NC(=O)Nc2ccc(-c3nc(N4CCOCC4)c4ncc(-c5cnn(C)c5)cc4n3)cc2F)c(F)c1 [Example 141, 3-fluoro-4-(3-(2-fluoro-4-(7-(1-methyl-1H-pyrazol-4-yl)-4-morpholino-pyrido[3,2-d]pyrimidin-2-yl)phenyl)ureido)-N,N-dimethyl-benzamide]
